{"source": "paper PMC10739246", "about": "(ACS Bio & Med Chem Au, 2023)", "key": {"[1]": {"tested_on": "norfloxacin-resistant clinical isolate of E. coli", "assay": "MIC, microdilution, norfloxacin-resistant clinical isolate of E. coli", "assay_type": "cell-based, Escherichia coli", "settings": "read-out: MIC E. coli (norfloxacin-resistant strain)"}, "[2]": {"tested_on": "M. tuberculosis (MC26020)", "assay": "microbe, parasite or virus in culture", "assay_type": "cell-based, Mycobacterium tuberculosis", "settings": "for MIC: Mycobacterium tuberculosis, read-out: MIC M. tuberculosis (MC26020)"}, "[3]": {"tested_on": "K. pneumoniae (ATCC 10031)", "assay": "MIC, K. pneumoniae ATCC 10031", "assay_type": "cell-based, Klebsiella pneumoniae"}, "S. aureus (CCUG1800T)": {"tested_on": "S. aureus (CCUG1800T)", "assay": "MIC, microdilution, S. aureus CCUG1800T", "assay_type": "cell-based, Staphylococcus aureus"}, "[4]": {"tested_on": "S. aureus (ATCC 43300) MRSA", "assay": "MIC, microdilution, MRSA ATCC 43300", "assay_type": "cell-based, Staphylococcus aureus", "settings": "for MIC: norfloxacin-resistant strain"}, "E. faecalis (ATCC 19433)": {"tested_on": "E. faecalis (ATCC 19433)", "assay": "MIC, E. faecalis ATCC 19433", "assay_type": "cell-based, Enterococcus faecalis"}, "P. aeruginosa (PAO1)": {"tested_on": "P. aeruginosa (PAO1)", "assay": "MIC, microdilution, P. aeruginosa PAO1", "assay_type": "cell-based, Pseudomonas aeruginosa"}, "E. coli (W3110)": {"tested_on": "E. coli (W3110)", "assay": "MIC, microdilution, E. coli W3110", "assay_type": "cell-based, Escherichia coli"}, "E. coli [5]": {"tested_on": "E. coli", "assay": "microbe, parasite or virus in culture", "settings": "Escherichia coli, read-out: MICC (MIC of the test compound alone)"}, "E. coli [6]": {"tested_on": "E. coli"}, "MreB in B. subtilis MW10": {"tested_on": "MreB in B. subtilis MW10", "assay": "MreB mobility assay", "assay_type": "cell-based, Bacillus subtilis", "settings": "B. subtilis MW10, 1 h of antibiotic exposure", "experimental": "MreB is an actin homologue that forms filamentous structures along the lateral axis of the cell. It moves along the length of the cells in a spiraling pattern thereby driving lateral peptidoglycan synthesis.[36],[37] MreB mobility is sensitive to inhibition of peptidoglycan synthesis and so far, every cell wall synthesis inhibitor we tested abolished MreB movement (see Figure S70 for examples).\nExpression of msfGFP-MreB was induced with 0.3% xylose. Pictures were taken after 1 h of antibiotic exposure. Two images of the same field of view were recorded 30 s apart and overlaid in ImageJ to visualize MreB mobility. A perfect overlap (yellow) indicates stalled MreB movement, while distinct red and green foci are indicative of MreB mobility. Scale bar 2 μm.\nFig. S70: MreB motility in B. subtilis MW10 after treatment with different cell wall synthesis inhibitors. Expression of GFP-MreB was induced with 0.3% xylose. Cells were treated with 1x […]\nTwo images of the same field of view were recorded 30 sec apart and overlaid in ImageJ to visualize MreB mobility. A perfect overlap (yellow) indicates stalled MreB movement while distinct red and green spots are indicative of MreB mobility. Scale bar 2 µm."}, "B. subtilis DSM402 [7]": {"tested_on": "B. subtilis DSM402", "assay": "Peptidoglycan integrity assay (acetic acid/methanol fixation)", "settings": "1x MIC; 30 min (cell wall inhibitors) or 60 min"}, "[8]": {"tested_on": "MurG in B. subtilis TNVS175", "assay": "MurG localization;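 also: normal MurG forms small membrane spots and peptidoglycan inhibition gives large clusters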", "assay_type": "cell-based, Bacillus subtilis", "settings": "1x MIC; 30 min (vancomycin) or 1 h"}, "[9]": {"tested_on": "cell wall biosynthesis in B. subtilis DSM402", "assay": "Summary of cell wall synthesis experiments", "assay_type": "cell-based, Bacillus subtilis"}, "B. subtilis DSM402 [10]": {"tested_on": "B. subtilis DSM402", "settings": "Table 2; cells treated with 1x MIC"}, "B. subtilis DSM402 [11]": {"tested_on": "B. subtilis DSM402", "assay": "Bacterial cytological profiling (BCP) in B. subtilis DSM402", "assay_type": "cell-based, Bacillus subtilis"}, "[12]": {"settings": "Klebsiella pneumoniae, ATCC10031"}, "[13]": {"settings": "Enterococcus faecalis, ATCC19433"}, "[14]": {"settings": "Escherichia coli, Gram-negative strain, average of duplicate experiments, read-out: MIC E. coli (W3110)"}, "[15]": {"settings": "norfloxacin-resistant clinical isolate"}, "[16]": {"settings": "read-out: MIC S. aureus (CCUG1800T)"}, "[17]": {"settings": "Gram-negative strain, average of duplicate experiments, read-out: MIC E. coli (W3110)"}, "[18]": {"settings": "interpretation of BCP in B. subtilis"}}, "note": "Where two headings read alike, the source gives them in different places."}
{"smiles": "CCn1cc(C(=O)O)c(=O)c2cc(F)c(N3CCN(C(=O)CNc4ccc(Br)cc4)CC3)cc21", "note": "[4b]", "values": [{"measurement": "MIC", "setting": "[1]; Escherichia coli", "value": "> 964", "unit": "µM"}, {"measurement": "MIC", "setting": "[2]", "value": 3.76, "unit": "µM"}, {"measurement": "MIC", "setting": "[3]; [12]", "value": "> 964", "unit": "µM"}, {"measurement": "MIC", "setting": "S. aureus (CCUG1800T); Staphylococcus aureus; Tab. S10, DNA gyrase side; strain not given, values equal S. aureus CCUG1800T of Table 1; read-out: MIC", "value": 1.88, "unit": "µM"}, {"measurement": "MIC", "setting": "S. aureus (CCUG1800T); Staphylococcus aureus; read-out: MIC S. aureus (CCUG1800T)", "value": 1.88, "unit": "µM"}, {"measurement": "MIC", "setting": "[4]; Staphylococcus aureus", "value": "> 964", "unit": "µM"}, {"measurement": "MIC", "setting": "E. faecalis (ATCC 19433); [13]", "value": 7.52, "unit": "µM"}, {"measurement": "MIC", "setting": "P. aeruginosa (PAO1); Pseudomonas aeruginosa, PAO1", "value": 723, "unit": "µM"}, {"measurement": "MIC", "setting": "E. coli (W3110); [14]", "value": 30.1, "unit": "µM"}]}
{"smiles": "CCn1cc(C(=O)O)c(=O)c2cc(F)c(N3CCN(C(=O)Cn4ccnc4)CC3)cc21", "note": "[8a]", "values": [{"measurement": "MIC", "setting": "[1]; Escherichia coli", "value": 74.9, "unit": "µM"}, {"measurement": "MIC", "setting": "[2]", "value": 2.33, "unit": "µM"}, {"measurement": "MIC", "setting": "[3]; [12]", "value": 9.35, "unit": "µM"}, {"measurement": "MIC", "setting": "S. aureus (CCUG1800T); Staphylococcus aureus, read-out: MIC S. aureus (CCUG1800T)", "value": 2.33, "unit": "µM"}, {"measurement": "MIC", "setting": "[4]; Staphylococcus aureus", "value": 299, "unit": "µM"}, {"measurement": "MIC", "setting": "E. faecalis (ATCC 19433); [13]", "value": 14, "unit": "µM"}, {"measurement": "MIC", "setting": "P. aeruginosa (PAO1); Pseudomonas aeruginosa, PAO1", "value": 150, "unit": "µM"}, {"measurement": "MIC", "setting": "E. coli (W3110); [14]", "value": 4.67, "unit": "µM"}, {"measurement": "MIC", "setting": "E. coli (W3110); Escherichia coli, Tab. S10, topoisomerase IV side, strain not given, values equal E. coli W3110 of Table 1, read-out: MIC", "value": 4.67, "unit": "µM"}]}
{"smiles": "CCn1cc(C(=O)O)c(=O)c2cc(F)c(N3CCN(CN4C(=O)C(=O)c5cc(C)ccc54)CC3)cc21", "note": "[20b]", "values": [{"measurement": "MIC", "setting": "[1]; [15]", "value": ">1039.59", "unit": "µM"}, {"measurement": "MIC M. tuberculosis (MC26020)", "setting": "[2]", "value": 129.94, "unit": "µM"}, {"measurement": "MIC", "setting": "[3]", "value": 3.04, "unit": "µM"}, {"measurement": "MIC", "setting": "S. aureus (CCUG1800T); [16]", "value": 32.48, "unit": "µM"}, {"measurement": "MIC", "setting": "[4]", "value": 259.89, "unit": "µM"}, {"measurement": "MIC", "setting": "E. faecalis (ATCC 19433)", "value": 6.09, "unit": "µM"}, {"measurement": "MIC", "setting": "P. aeruginosa (PAO1)", "value": 16.24, "unit": "µM"}, {"measurement": "MIC", "setting": "E. coli (W3110); [17]", "value": 5.07, "unit": "µM"}]}
{"smiles": "CCn1cc(C(=O)O)c(=O)c2cc(F)c(N3CCN(CN4C(=O)C(=O)c5cc(OC)ccc54)CC3)cc21", "note": "[20c]", "values": [{"measurement": "MIC", "setting": "[1]; [15]", "value": 1006.88, "unit": "µM"}, {"measurement": "MIC M. tuberculosis (MC26020)", "setting": "[2]", "value": ">1006.88", "unit": "µM"}, {"measurement": "MIC", "setting": "[3]", "value": 503.44, "unit": "µM"}, {"measurement": "MIC", "setting": "S. aureus (CCUG1800T); [16]", "value": 31.46, "unit": "µM"}, {"measurement": "fold more active than norfloxacin", "setting": "[4]", "value": 6.3, "unit": "fold"}, {"measurement": "MIC", "setting": "[4]", "value": 15.73, "unit": "µM"}, {"measurement": "MIC", "setting": "E. faecalis (ATCC 19433)", "value": 251.72, "unit": "µM"}, {"measurement": "MIC", "setting": "P. aeruginosa (PAO1)", "value": 62.93, "unit": "µM"}, {"measurement": "MIC", "setting": "E. coli (W3110); [17]", "value": 4.91, "unit": "µM"}]}
{"smiles": "CC(C)(N)[C@H](NC(=O)c1ccc(C#CC#C[C@@H]2C[C@H]2CO)cc1)C(=O)NO", "note": "[ACHN-975, reference compound]", "values": [{"measurement": "MIC", "setting": "E. coli [5]", "value": 0.5, "unit": "µg/mL"}, {"measurement": "FICM (MICMcheckerboard/MICM)", "setting": "E. coli [6]; mupirocin alone 64 µg/mL", "value": 0.0469}, {"measurement": "FICI (fractional inhibitory concentration index)", "setting": "E. coli [6]; with mupirocin, FICC+FICM", "value": 0.2969}]}
{"smiles": "N[C@@H]1CON=C1O", "note": "[D-Cyc, D-cycloserine]", "values": [{"measurement": "MreB mobility", "setting": "MreB in B. subtilis MW10", "value": "static with foci"}, {"measurement": "PG integrity", "setting": "B. subtilis DSM402 [7]", "value": "compromised"}, {"measurement": "protein localization MurG", "setting": "[8]", "value": "patchy"}, {"measurement": "CWB inhibited?", "setting": "[9]", "value": "yes"}, {"measurement": "μM (concentration used, 1x MIC)", "setting": "B. subtilis DSM402 [10]", "value": 293.85, "unit": "µM"}]}
{"smiles": "CCCCCCCCCC(=O)N[C@@H](Cc1c[nH]c2ccccc12)C(=O)N[C@H](CC(N)=O)C(=O)N[C@@H](CC(=O)O)C(=O)N[C@@H]1C(=O)NCC(=O)N[C@@H](CCCN)C(=O)N[C@@H](CC(=O)O)C(=O)N[C@H](C)C(=O)N[C@@H](CC(=O)O)C(=O)NCC(=O)N[C@H](CO)C(=O)N[C@@H]([C@H](C)CC(=O)O)C(=O)N[C@@H](CC(=O)c2ccccc2N)C(=O)O[C@@H]1C", "note": "[Dap, daptomycin, reference compound]", "values": [{"measurement": "DAPI", "setting": "B. subtilis DSM402 [11]; 1x MIC, 1 h, DNA condensation", "value": "regular"}, {"measurement": "phase contrast", "setting": "B. subtilis DSM402 [11]; 1x MIC, 1 h, indicates cell lysis", "value": "dark"}, {"measurement": "FM4-64", "setting": "B. subtilis DSM402 [11]; 1x MIC, 1 h, membrane stain", "value": "patchy"}, {"measurement": "gyrase inhibition", "setting": "B. subtilis DSM402 [11]; [18]", "value": "no"}, {"measurement": "membrane damage", "setting": "B. subtilis DSM402 [11]; [18]", "value": "yes"}]}
